In US20100298141A1, “SUBSTITUTED PYRIDINE N-OXIDE HERBICIDES” (E. I. DU PONT DE NEMOURS AND COMPANY, priority 2007, published 2010):

Columns and labels:
yellow nutsedge = assay: Test C pre-/postemergence test; assay type: in vivo, Cyperus esculentus; settings: for Plant response rating, Nutsedge, Yellow: 31 g ai/ha, scale 0 to 100 (0 no effect, 100 complete control)
Summary of the method: (§1)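 Test chemicals were formulated with surfactant in a non-phytotoxic solvent and sprayed both on freshly planted seeds (preemergence) and on 1- to 4-leaf plants of 2–18 cm (postemergence). Flooded-paddy pots received compound directly into 3 cm of standing water, maintained for the test.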

johnsongrass = assay: Test C pre-/postemergence test; assay type: in vivo, Sorghum halepense; settings: for Plant response rating, Johnsongrass: 31 g ai/ha, scale 0 to 100 (0 no effect, 100 complete control)
Summary of the method: as §1

green foxtail = assay: Test C pre-/postemergence test; assay type: in vivo, Setaria viridis; settings: for Plant response rating, Foxtail, Green: 31 g ai/ha, scale 0 to 100 (0 no effect, 100 complete control)
Summary of the method: as §1

crabgrass [1] = assay: Test C pre-/postemergence test; assay type: in vivo, Digitaria sanguinalis; settings: for Plant response rating, Crabgrass, Large: 31 g ai/ha, scale 0 to 100 (0 no effect, 100 complete control)
Summary of the method: as §1

corn [2] = assay: Test A pre-/postemergence greenhouse test; assay type: in vivo, Zea mays; settings: for Corn plant response rating: 0 to 100 scale; for Plant response rating, Corn: 0 to 100 scale where 0 is no effect and 100 is complete control
Summary of the method: (§2)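 Untreated controls served as the reference for visual injury ratings taken about ten days after spraying. The non-phytotoxic solvent/surfactant formulation was applied preemergence to seeded loam and sand and postemergence to plants two to ten cm high.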

crabgrass [3] = assay: Test A pre-/postemergence greenhouse test; assay type: in vivo, Digitaria sanguinalis; settings: for Crabgrass, Large plant response rating: 0 to 100 scale; for Plant response rating, Crabgrass, Large: 0 to 100 scale where 0 is no effect and 100 is complete control
Summary of the method: as §2

duck salad = assay: Test C flooded paddy test; assay type: in vivo, Heteranthera limosa; settings: Flood
Summary of the method: (§3)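 Greenhouse pots flooded to 3 cm above soil at time of treatment received compound via the water, which stayed at that level.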

bermudagrass = assay: Test C pre-/postemergence test; assay type: in vivo, Cynodon dactylon; settings: for Plant response rating, Bermudagrass: 31 g ai/ha
Summary of the method: as §1

pigweed = assay: Test C pre-/postemergence test; assay type: in vivo, Amaranthus retroflexus
Summary of the method: as §1

corn [4] = assay: Test C pre-/postemergence test; assay type: in vivo, Zea mays
Summary of the method: as §1

Goosegrass = assay: Test C pre-/postemergence test; assay type: in vivo, Eleusin indica; settings: for Plant response rating, Goosegrass: 31 g ai/ha, scale 0 to 100 (0 no effect, 100 complete control)
Summary of the method: as §1

barnyardgrass [5] = assay: Test C flooded paddy test; assay type: in vivo, Echinochloa crus-galli; settings: Flood
Summary of the method: as §3

Italian ryegrass = assay: Test C pre-/postemergence test; assay type: in vivo, Lolium multiflorum; settings: for Plant response rating, Ryegrass, Italian: 31 g ai/ha, scale 0 to 100 (0 no effect, 100 complete control)
Summary of the method: as §1

soybean = assay: Test C pre-/postemergence test; assay type: in vivo, Glycine max
Summary of the method: as §1

umbrella sedge = assay: Test C flooded paddy test; assay type: in vivo, Cyperus difformis; settings: Flood
Summary of the method: as §3

velvetleaf = assay: Test A pre-/postemergence greenhouse test; assay type: in vivo, Abutilon theophrasti; settings: for Velvetleaf plant response rating: 0 to 100 scale; for Plant response rating, Velvetleaf: 0 to 100 scale where 0 is no effect and 100 is complete control
Summary of the method: as §2

barnyardgrass [6] = assay: Test A pre-/postemergence greenhouse test; assay type: in vivo, Echinochloa crus-galli; settings: for Barnyardgrass plant response rating: 0 to 100 scale; for Plant response rating, Barnyardgrass: 0 to 100 scale where 0 is no effect and 100 is complete control
Summary of the method: as §2

[7] = 62 g ai/ha, Preemergence, scale 0 to 100
[8] = 125 g ai/ha, preemergence, scale 0 (no effect) to 100 (complete control)
[9] = preemergence, 250 g ai/ha, scale 0 (no effect) to 100 (complete control)
[10] = Postemergence, 125 g ai/ha, 0 is no effect, 100 is complete control
[11] = Postemergence, 500 g ai/ha, 0 is no effect, 100 is complete control
[12] = Preemergence, 125 g ai/ha, 0 no effect, 100 complete control
[13] = 31 g ai/ha, scale 0 to 100 (0 no effect, 100 complete control)
[14] = 62 g ai/ha, scale 0 to 100, 0 no effect, 100 complete control, 13 to 15 days
[15] = 125 g ai/ha, scale 0 to 100, 0 no effect, 100 complete control, 13 to 15 days
[16] = 250 g ai/ha, scale 0 to 100, 0 no effect, 100 complete control, 13 to 15 days
[17] = 62 g ai/ha, Preemergence, scale 0 to 100 (0 no effect, 100 complete control)
[18] = Preemergence, scale 0 to 100 (0 no effect, 100 complete control)
[19] = Preemergence, 31 g ai/ha, scale 0 to 100 (0 no effect, 100 complete control)
[20] = 62 g ai/ha, scale 0 to 100 (0 no effect, 100 complete control)

Structure (SMILES): Cn1nc(C(F)(F)F)c(C[S+]([O-])c2cc(Br)cc[n+]2[O-])c1Cl (racemic) [Compound 35]
- Nutsedge, Yellow plant response rating (yellow nutsedge; [7]): 60
- Nutsedge, Yellow plant response rating (yellow nutsedge; [8]): 90
- Plant response rating, Nutsedge, Yellow (yellow nutsedge; Preemergence): 0
- Nutsedge, Yellow plant response rating (yellow nutsedge; [9]): 100
- Johnsongrass plant response rating (johnsongrass; [7]): 90
- Johnsongrass plant response rating (johnsongrass; [8]): 100
- Plant response rating, Johnsongrass (johnsongrass; Preemergence): 50
- Johnsongrass plant response rating (johnsongrass; [9]): 100
- Foxtail, Green plant response rating (green foxtail; [7]): 80
- Foxtail, Green plant response rating (green foxtail; [8]): 100
- Plant response rating, Foxtail, Green (green foxtail; Preemergence): 0
- Foxtail, Green plant response rating (green foxtail; [9]): 100
- Crabgrass, Large plant response rating (crabgrass [1]; [7]): 100
- Crabgrass, Large plant response rating (crabgrass [1]; [8]): 100
- Plant response rating, Crabgrass, Large (crabgrass [1]; Preemergence): 85
- Crabgrass, Large plant response rating (crabgrass [1]; [9]): 100
- Corn plant response rating (corn [2]; [10]): 0
- Corn plant response rating (corn [2]; [11]): 30
- Corn plant response rating (corn [2]; [12]): 0
- Plant response rating, Corn (corn [2]; Preemergence, 500 g ai/ha): 0
- Crabgrass, Large plant response rating (crabgrass [3]; [10]): 50
- Crabgrass, Large plant response rating (crabgrass [3]; [11]): 80
- Crabgrass, Large plant response rating (crabgrass [3]; [12]): 60
- Plant response rating, Crabgrass, Large (crabgrass [3]; Preemergence, 500 g ai/ha): 80
- Plant response rating, Ducksalad (duck salad; [13]): 60
- Plant response rating, Ducksalad (duck salad; [14]): 60
- Plant response rating, Ducksalad (duck salad; [15]): 85
- Plant response rating, Ducksalad (duck salad; [16]): 95
- Bermudagrass plant response rating (bermudagrass; [17]): 100
- Bermudagrass plant response rating (bermudagrass; [8]): 100
- Plant response rating, Bermudagrass (bermudagrass; [18]): 90
- Bermudagrass plant response rating (bermudagrass; [9]): 100
- Pigweed plant response rating (pigweed; [7]): 100
- Pigweed plant response rating (pigweed; [8]): 100
- Plant response rating, Pigweed (pigweed; [19]): 100
- Pigweed plant response rating (pigweed; [9]): 100
- Corn plant response rating (corn [4]; [7]): 10
- Corn plant response rating (corn [4]; [8]): 30
- Plant response rating, Corn (corn [4]; [19]): 10
- Corn plant response rating (corn [4]; [9]): 65
- Goosegrass plant response rating (Goosegrass; [7]): 100
- Goosegrass plant response rating (Goosegrass; [8]): 100
- Plant response rating, Goosegrass (Goosegrass; Preemergence): 80
- Goosegrass plant response rating (Goosegrass; [9]): 100
- Plant response rating, Barnyardgrass (barnyardgrass [5]; [13]): 0
- Plant response rating, Barnyardgrass (barnyardgrass [5]; [14]): 0
- Plant response rating, Barnyardgrass (barnyardgrass [5]; [15]): 20
- Plant response rating, Barnyardgrass (barnyardgrass [5]; [16]): 40
- Ryegrass, Italian plant response rating (Italian ryegrass; [7]): 20
- Ryegrass, Italian plant response rating (Italian ryegrass; [8]): 20
- Plant response rating, Ryegrass, Italian (Italian ryegrass; Preemergence): 10
- Ryegrass, Italian plant response rating (Italian ryegrass; [9]): 20
- Soybean plant response rating (soybean; [7]): 0
- Soybean plant response rating (soybean; [8]): 10
- Plant response rating, Soybean (soybean; [19]): 0
- Soybean plant response rating (soybean; [9]): 60
- Plant response rating, Sedge, Umbrella (umbrella sedge; [13]): 80
- Plant response rating, Sedge, Umbrella (umbrella sedge; [14]): 90
- Plant response rating, Sedge, Umbrella (umbrella sedge; [15]): 95
- Plant response rating, Sedge, Umbrella (umbrella sedge; [16]): 95
- Velvetleaf plant response rating (velvetleaf; [10]): 50
- Velvetleaf plant response rating (velvetleaf; [11]): 60
- Velvetleaf plant response rating (velvetleaf; [12]): 30
- Plant response rating, Velvetleaf (velvetleaf; Preemergence, 500 g ai/ha): 90
- Barnyardgrass plant response rating (barnyardgrass [6]; [10]): 50
- Barnyardgrass plant response rating (barnyardgrass [6]; [11]): 80
- Barnyardgrass plant response rating (barnyardgrass [6]; [12]): 70
- Plant response rating, Barnyardgrass (barnyardgrass [6]; Preemergence, 500 g ai/ha): 100

Structure (SMILES): CCn1nc(C(F)(F)F)c(C[S+]([O-])c2cc(C)cc[n+]2[O-])c1OCC(F)(F)F (racemic) [Compound 66]
- Nutsedge, Yellow plant response rating (yellow nutsedge; [7]): 30
- Nutsedge, Yellow plant response rating (yellow nutsedge; [8]): 40
- Plant response rating, Nutsedge, Yellow (yellow nutsedge; Preemergence): 30
- Nutsedge, Yellow plant response rating (yellow nutsedge; [9]): 50
- Johnsongrass plant response rating (johnsongrass; [8]): 80
- Plant response rating, Johnsongrass (johnsongrass; Preemergence): 80
- Johnsongrass plant response rating (johnsongrass; [9]): 80
- Foxtail, Green plant response rating (green foxtail; [7]): 100
- Foxtail, Green plant response rating (green foxtail; [8]): 100
- Plant response rating, Foxtail, Green (green foxtail; Preemergence): 85
- Foxtail, Green plant response rating (green foxtail; [9]): 100
- Crabgrass, Large plant response rating (crabgrass [1]; [7]): 100
- Crabgrass, Large plant response rating (crabgrass [1]; [8]): 100
- Plant response rating, Crabgrass, Large (crabgrass [1]; Preemergence): 100
- Crabgrass, Large plant response rating (crabgrass [1]; [9]): 100
- Plant response rating, Corn (corn [2]; Postemergence, 125 g ai/ha): 50
- Corn plant response rating (corn [2]; [11]): 80
- Corn plant response rating (corn [2]; [12]): 30
- Plant response rating, Corn (corn [2]; Preemergence, 500 g ai/ha): 80
- Plant response rating, Crabgrass, Large (crabgrass [3]; Postemergence, 125 g ai/ha): 50
- Crabgrass, Large plant response rating (crabgrass [3]; [11]): 90
- Crabgrass, Large plant response rating (crabgrass [3]; [12]): 80
- Plant response rating, Crabgrass, Large (crabgrass [3]; Preemergence, 500 g ai/ha): 100
- Plant response rating, Ducksalad (duck salad; [20]): 70
- Plant response rating, Ducksalad (duck salad; [16]): 90
- Bermudagrass plant response rating (bermudagrass; [17]): 100
- Bermudagrass plant response rating (bermudagrass; [8]): 100
- Plant response rating, Bermudagrass (bermudagrass; [18]): 100
- Bermudagrass plant response rating (bermudagrass; [9]): 100
- Pigweed plant response rating (pigweed; [7]): 30
- Pigweed plant response rating (pigweed; [8]): 100
- Pigweed plant response rating (pigweed; [9]): 100
- Corn plant response rating (corn [4]; [7]): 80
- Corn plant response rating (corn [4]; [8]): 100
- Corn plant response rating (corn [4]; [9]): 100
- Goosegrass plant response rating (Goosegrass; [7]): 100
- Goosegrass plant response rating (Goosegrass; [8]): 100
- Plant response rating, Goosegrass (Goosegrass; Preemergence): 100
- Goosegrass plant response rating (Goosegrass; [9]): 100
- Plant response rating, Barnyardgrass (barnyardgrass [5]; [20]): 10
- Plant response rating, Barnyardgrass (barnyardgrass [5]; [16]): 70
- Ryegrass, Italian plant response rating (Italian ryegrass; [7]): 90
- Ryegrass, Italian plant response rating (Italian ryegrass; [8]): 100
- Plant response rating, Ryegrass, Italian (Italian ryegrass; Preemergence): 55
- Soybean plant response rating (soybean; [8]): 80
- Plant response rating, Sedge, Umbrella (umbrella sedge; [20]): 85
- Plant response rating, Sedge, Umbrella (umbrella sedge; [16]): 100
- Plant response rating, Velvetleaf (velvetleaf; Postemergence, 125 g ai/ha): 60
- Velvetleaf plant response rating (velvetleaf; [11]): 80
- Velvetleaf plant response rating (velvetleaf; [12]): 60
- Plant response rating, Velvetleaf (velvetleaf; Preemergence, 500 g ai/ha): 100
- Plant response rating, Barnyardgrass (barnyardgrass [6]; Postemergence, 125 g ai/ha): 70
- Barnyardgrass plant response rating (barnyardgrass [6]; [11]): 90
- Barnyardgrass plant response rating (barnyardgrass [6]; [12]): 60
- Plant response rating, Barnyardgrass (barnyardgrass [6]; Preemergence, 500 g ai/ha): 100
